Measurements reported in US20250368651A1 (priority 2022, published 2025).
Where two headings read alike, the source gives them in different places.

What was measured:
[1] = system: SMN2 exon 7 splicing; assay: Cell-based SMN2 splicing assay in 293T cells (minigene); parameters: species or system human; details: for EC50: Homo sapiens, HEK-293T; for splicing modulation in cells: cellular SMN2 splicing assays
[2] = biological target: RNA Seq4 […]; assay: FP binding assay, RNA Seq4
Experimental: (§1) All synthetic DNA and RNA oligomers were purchased from Integrated DNA Technologies and reconstituted in nuclease-free water (Invitrogen #AM9932) at 1 mM. The concentration of the oligonucleotides at ˜0.1 mM was calibrated with the A260 value measured by a NanoDrop ND-1000 (Thermo, Waltham, MA, USA) and the predicted extinction coefficient (http://www.oligoevaluator.com) using Lamber-Beer's Law. The risdiplam analogues (1 mM in DMSO) were diluted in 2× assay buffer (40 mM HEPES, 200 mM NaCl for RNA; 40 mM HEPES, 200 mM NaCl, 1 mM MgCl2 for DNA) to make a 1 μM 2× working solution.
(§2) A 1:2 dilution series (8 points) of each oligonucleotide was prepared in 20-30 μL water to desired concentrations (i.e., 1-128 μM). 20-30 μL 2× working solution containing the 2× assay buffer and the small-molecule ligand was added to each oligonucleotide sample in 1:1 (v/v) and mixed by pipetting for 4 times. For fluorescence polarization measurement, 20 μL of the above 1× working solution was transferred into a 384-well, black, F-bottom microplates (Greiner Bio-One) in duplicates or triplicates. The plate was equilibrated at room temperature for 5 min before being read using a microplate reader (SYNERGY H1, BioTek; Excitation/Emission=360/460 nm) at 25° C. For compound SMN-C5, a competitive binding assay was employed to measure an apparent Kd. SMN-C5 was 1:2 serial diluted for 10 concentration points starting at 750 μM in DMSO. A mixture of SMN-C2 (0.5 μM) and DNA Seq6 (25 μM) in 1× assay buffer was prepared and incubated at room temperature for 10 minutes. 3 μL of SMN-C5 solution at each concentration was added to a 42 μL SMN-C2/DNA Seq6 mixture and incubated at room temperature for 10 minutes. The mixture was then transferred into a microplate (20 μL each well) in duplicates for fluorescence polarization readout. The experimental data were analyzed using Prism 8 software (Graphpad Software, San Diego, CA, USA).

[3] = biological target: COVID RNA (SARS-CoV-2 RNA SL5 per FIG. 8); assay: FP binding, Kd for COVID RNA
[4] = system: RNA Seq6 UGAAGGAAGGU; assay: Fluorescence polarization (FP) binding assay, RNA Seq6
Experimental: as §1, §2

[5] = biological target: DNA Seq6 (UGAAGGAAGGU as deoxyribonucleotides); assay: FP binding assay, DNA Seq6; details: footnote c: FP assay for DNA Seq6; range = 95% CI; read-out: Kd
Experimental: as §1, §2

[6] = in vitro; details: human
[7] = in vitro; details: human; remark: listed apart in the source
[8] = in vitro; details: human; remark: listed apart in the source
[9] = system: gene splicing; details: cited from earlier work
[10] = Table 3, read-out: SMN2 Splicing EC50
[11] = cell-based SMN2 splicing assay in 293T cells, read-out: SMN2 EC50

Compound | EC50 [1, 10] | EC50 [1, 11] | Kd [5] | CC50 [6] | other results
Cc1cn2cc(-c3c(OCCNC(=O)OC(C)(C)C)c4ccc(N5CCN[C@@H](C)C5)cc4oc3=O)nc2c(C)n1 [Compound C7] | > 8 µM |  |  |  | 
Cc1cn2cc(-c3cc4ccc(N5CCN(CCNC(=O)OC(C)(C)C)[C@@H](C)C5)cc4oc3=O)nc2c(C)n1 [Compound C6, (S)-tert-butyl(2-(4-(3-(6,8-dimethylimidazo[1,2-a]pyrazin-2-yl)-2-oxo-2H-chromen-7-yl)-2-methylpiperazin-1-yl)ethyl)carbamate] |  | > 8 µM | 4 ± 0.3 µM |  | Kd [2]: 37.5 ± 14 µM; Kd ([3]; Table 3): 3 ± 0.4 µM; Kd ([3]; Table 4): 3.03 ± 0.4 µM; reduction of binding to RNA Seq6 by the Boc group ([4]; Table 1 RNA Seq6 (SMN-C2) vs Table 2 entry 6): ~3 fold; Kd ([4]; footnote d: FP assay for RNA Seq6, read-out: Kd): 51.2 ± 4.9 µM; splicing modulation in cells [1]: without showing any observable splicing modulation
CC(=O)N1CCN(c2ccc3cc(-c4cn5cc(C)nc(C)c5n4)c(=O)oc3c2)C[C@@H]1C [Compound C8, (S)-7-(4-acetyl-3-methylpiperazin-1-yl)-3-(6,8-dimethylimidazo[1,2-a]pyrazin-2-yl)-2H-chromen-2-one] | > 8 µM |  |  |  | 
O=c1oc2cc(N3CCNCC3)ccc2cc1-c1cn2cc(F)ccc2n1 [Compound C31, 3-(6-fluoroimidazo[1,2-a]pyridin-2-yl)-7-(piperazin-1-yl)-2H-chromen-2-one] |  |  |  | 4.7 µM | Kd ([3]; Table 3): 0.68 ± 0.1 µM; Kd ([3]; Table 4): 0.68 ± 0.1 µM
O=c1oc2cc(N3CCNCC3)ccc2cc1-c1cn2ccccc2n1 [Compound C29, 3-(imidazo[1,2-a]pyridin-2-yl)-7-(piperazin-1-yl)-2H-chromen-2-one] | > 8 µM | > 8 µM | 2.8 ± 0.5 µM | 5.4 µM | Kd ([3]; Table 3): 0.46 ± 0.08 µM; Kd ([3]; Table 4): 0.46 ± 0.8 µM; splicing modulation in cells [1]: without showing any observable splicing modulation
CN1CCN(c2ccc3cc(-c4ccc(Cl)cc4)c(=O)oc3c2)CC1 [Compound C20, 3-(4-chlorophenyl)-7-(4-methylpiperazin-1-yl)-2H-chromen-2-one] | > 8 µM | > 8 µM | 8.2 ± 0.7 µM |  | splicing modulation in cells [1]: without showing any observable splicing modulation
COc1cn2cc(-c3cc4ccc(N5CCNCC5)cc4oc3=O)nc2cn1 [Compound C28, 3-(6-methoxyimidazo[1,2-a]pyrazin-2-yl)-7-(piperazin-1-yl)-2H-chromen-2-one] | > 8 µM | > 8 µM | 1.4 ± 0.2 µM |  | Kd ([3]; Table 3): 0.47 ± 0.08 µM; Kd ([3]; Table 4): 0.47 ± 0.8 µM; splicing modulation in cells [1]: without showing any observable splicing modulation
CN1CCN(c2cc(F)c3cc(-c4cccc(Cl)c4)c(=O)oc3c2)CC1 [Compound C25, 3-(3-chlorophenyl)-5-fluoro-7-(4-methylpiperazin-1-yl)-2H-chromen-2-one] | > 8 µM | > 8 µM | 18.7 ± 4 µM |  | 
O=c1oc2cc(N3CCNCC3)ccc2cc1-c1cn2cc(Cl)ccc2n1 [Compound C33, 3-(6-chloroimidazo[1,2-a]pyridin-2-yl)-7-(piperazin-1-yl)-2H-chromen-2-one] |  |  |  | 11.6 µM | 
COc1ccc2nc(-c3cc4ccc(N5CCNCC5)cc4oc3=O)cn2c1 [Compound C35, 3-(6-methoxyimidazo[1,2-a]pyridin-2-yl)-7-(piperazin-1-yl)-2H-chromen-2-one] |  |  |  | 3 µM | 
Cc1c(-c2cccc(Cl)c2)c(=O)oc2cc(N3CCN(C)CC3)ccc12 [Compound C22, 3-(3-chlorophenyl)-4-methyl-7-(4-methylpiperazin-1-yl)-2H-chromen-2-one] | > 8 µM | > 8 µM | > 100 µM | > 30 µM | CC50 [7]: > 30 µM; CC50 [8]: > 30 µM
CCOC(=O)C1=C(Nc2ccccc2)S/C(=C\c2ccc(OCCOCCn3cc(COCCOCCOCCOCCN4CCN(c5ccc6cc(-c7cn8cc(C)nc(C)c8n7)c(=O)oc6c5)CC4C)nn3)c(O)c2)C1=O (stereo in doubt) [Compound C9, (S,Z)-ethyl 5-(4-(2-(2-(4-(13-(4-(3-(6,8-dimethylimidazo[1,2-a]pyrazin-2-yl)-2-oxo-2H-chromen-7-yl)-2-methylpiperazin-1-yl)-2,5,8,11-tetraoxatridecyl)-1H-1,2,3-triazol-1-yl)ethoxy)ethoxy)-3-hydroxybenzylidene)-4-oxo-2-(phenylamino)-4,5-dihydrothiophene-3-carboxylate] | > 8 µM |  |  |  | 
CN1CCN(c2ccc3cc(-c4cccc(Cl)c4)c(=O)oc3c2)CC1 [Compound C19, 3-(3-chlorophenyl)-7-(4-methylpiperazin-1-yl)-2H-chromen-2-one] | > 8 µM | > 8 µM | 13.9 ± 1.1 µM | > 30 µM | CC50 [7]: > 30 µM; CC50 [8]: > 30 µM
CC1(C)CC(Oc2ccc(-c3ccc(-c4cn[nH]c4)cc3O)nn2)CC(C)(C)N1 [branaplam] |  |  |  |  | number of genes whose splicing is significantly affected [9]: 36 genes
Cc1c(-c2ccccc2Cl)c(=O)oc2cc(N3CCN(C)CC3)ccc12 [Compound C21, 3-(2-chlorophenyl)-4-methyl-7-(4-methylpiperazin-1-yl)-2H-chromen-2-one] | > 8 µM |  |  |  | 
Cc1cn2cc(-c3c(Br)c4ccc(N5CCN[C@@H](C)C5)cc4oc3=O)nc2c(C)n1 [Compound C13, (S)-4-bromo-3-(6,8-dimethylimidazo[1,2-a]pyrazin-2-yl)-7-(3-methylpiperazin-1-yl)-2H-chromen-2-one] | 0.45 ± 0.18 µM |  |  |  | 
O=c1oc2cc(N3CCNCC3)ccc2cc1-c1ccc2ccccc2c1 [Compound C39] | > 8 µM |  |  | 7.9 µM | 
O=c1oc2cc(N3CCNCC3)ccc2cc1-c1cn2ccc(Cl)cc2n1 [Compound C32, 3-(7-chloroimidazo[1,2-a]pyridin-2-yl)-7-(piperazin-1-yl)-2H-chromen-2-one] | > 8 µM |  |  |  | Kd ([3]; Table 3): 0.4 ± 0.04 µM; Kd ([3]; Table 4): 0.4 ± 0.4 µM
COc1ccn2cc(-c3cc4ccc(N5CCNCC5)cc4oc3=O)nc2c1 [Compound C34, 3-(7-methoxyimidazo[1,2-a]pyridin-2-yl)-7-(piperazin-1-yl)-2H-chromen-2-one] |  |  |  | 3.6 µM | 
O=c1oc2cc(N3CCNCC3)ccc2cc1-c1cn2cc(C(F)(F)F)ccc2n1 [Compound C37, 7-(piperazin-1-yl)-3-(6-(trifluoromethyl)imidazo[1,2-a]pyridin-2-yl)-2H-chromen-2-one] |  |  |  | 14.1 µM | 
Cc1c(-c2ccc(Cl)cc2)c(=O)oc2cc(N3CCN(C)CC3)ccc12 [Compound C23, 3-(4-chlorophenyl)-4-methyl-7-(4-methylpiperazin-1-yl)-2H-chromen-2-one] | > 8 µM | > 8 µM | > 100 µM |  | 
CN1CCN(c2cc(F)c3cc(-c4ccc(Cl)cc4)c(=O)oc3c2)CC1 [Compound C26, 3-(4-chlorophenyl)-5-fluoro-7-(4-methylpiperazin-1-yl)-2H-chromen-2-one] | > 8 µM | > 8 µM | 9.9 ± 0.9 µM | > 30 µM | CC50 [7]: > 30 µM; CC50 [8]: > 30 µM
CN1CCN(c2cc(F)c3cc(-c4ccccc4Cl)c(=O)oc3c2)CC1 [Compound C24, 3-(2-chlorophenyl)-5-fluoro-7-(4-methylpiperazin-1-yl)-2H-chromen-2-one] | > 8 µM |  |  |  | 
O=c1oc2cc(N3CCNCC3)ccc2cc1-c1ccc2ncccc2c1 [Compound C38] | > 8 µM |  |  | 1.8 µM | 
O=c1oc2cc(N3CCNCC3)ccc2cc1-c1cn2ccc(C(F)(F)F)cc2n1 [Compound C36, 7-(piperazin-1-yl)-3-(7-(trifluoromethyl)imidazo[1,2-a]pyridin-2-yl)-2H-chromen-2-one] |  |  |  |  | Kd ([3]; Table 3): 1.4 ± 0.4 µM; Kd ([3]; Table 4): 1.39 ± 0.4 µM
Cc1cn2cc(-c3cc4ccc(N5CCN(CCOCCN=[N+]=[N-])[C@@H](C)C5)cc4oc3=O)nc2c(C)n1 [Compound C12, (S)-7-(4-(2-(2-azidoethoxy)ethyl)-3-methylpiperazin-1-yl)-3-(6,8-dimethylimidazo[1,2-a]pyrazin-2-yl)-2H-chromen-2-one] | 0.18 ± 0.04 µM |  |  |  | Kd ([3]; Table 3): 2.6 ± 0.8 µM; Kd ([3]; Table 4): 2.6 ± 0.8 µM
CN1CCN(c2ccc3cc(-c4ccccc4Cl)c(=O)oc3c2)CC1 [Compound C18, 3-(2-chlorophenyl)-7-(4-methylpiperazin-1-yl)-2H-chromen-2-one] | > 8 µM | > 8 µM | > 100 µM |  | 
